From PMC10541198, “Specific quinone reductase 2 inhibitors reduce metabolic burden and reverse Alzheimer’s disease phenotype in mice” (The Journal of Clinical Investigation, 2023) come the findings set out here.

The test system of one data set is THLE-2 cells. The data set is described as follows: ATP depletion cell toxicity assay (CellTiter Glo), 72 h. As to conditions: for cell viability, Cell-Titer-Glo (replicates): THLE2, 72 hour, in % (unit assumed); for LD50, cell viability (Cell-Titer-Glo): THLE2 cells, 72 hour incubation. In kind it is cell-based. Here is the method: (§1) H2DCFDA ROS assay was carried out according to established protocols, with some adjustment (Supplemental Methods) ([6]). Cell toxicity was measured via ATP depletion (CellTiter Glo, Promega) in THLE-2 cells (ATCC, CRL-2706), following 72 hours of exposure to the test compounds, and cell viability was assessed using XTT assay (Biological Industries) according to manufacturers protocols. CETSA was performed as previously described ([53]) with some modifications, using QR2 (Santa Cruz, sc-271665) and SOD1 (Santa Cruz, sc-17767) antibodies. SDS-PAGE and immunoblot imaging were carried out as previously described ([55]), using Tubulin (Sigma-Aldrich, SAB4500087), QR2 (Santa Cruz, sc-271665), NDUFA9 (AbCam, ab14713) and CD73 (Cell Signaling Technology, D7F9A) antibodies.
with a 100 µM as upper limit, for 72 h. […]
(§2) Cellular The rm a l Shift Assay (CETSA) […]
(§3) 17767). Analysis of the results wer e done in accordance to Jafari et a l .( 63) us i ng GraphPad Pr i sm software.

The test system of the next data set is HEK293 cells. The data set is described as follows: XTT cell viability assay. Type of data set: cell-based. As to conditions: in % (unit assumed). The procedure:
To establish direct target engagement and cell membrane permeability, a cellular thermal shift assay (CETSA) was carried out, using leading QR2is YB’s-537, 800, and 808. Following a 1 hour preincubation with 5 μM of the QR2is or vehicle, thermal aggregation curves (Taggs) of QR2 expressed in HEK293T were measured in increasing temperatures. All QR2is increased QR2 thermal stability compared with vehicle (Supplemental Figure 2A). Based on the Tagg curves we selected 73°C for isothermal dose-response fingerprint (IDTRF) experiments (Supplemental Figure 2B). The ITDRF allowed the relative quantification of the binding of each of the QR2is to QR2, measured as the EC50 (Figure 3A). […] We evaluated the safety of the QR2is using cell toxicity and viability assays. […] Cell viability was assessed by XTT assay in HEK239T cells, using a dose response, with 3- or 24-hour incubations of the leading QR2is. No sign of toxicity was seen (Figure 3C). Next, we wanted to assess if, similar to QR2 KO, QR2is can reduce cellular ROS in HCT116 cells and see whether any observable effect is occluded in QR2Δ cells. […] We then assessed WT HCT116 cells by immunoblot (Supplemental Figure 2, C and D), after being treated with YB-800 (2 μM) for 4 consecutive days.
as §1, with “D7F9A) antibodies. […]” for “D7F9A) antibodies.”
HEK293FT cells were cultured with penicillin- streptomycin antibiotics in Invitrogen DMEM (Thermo
Fisher Scientific) with 10% fetal bovine serum a nd L -glutamine, and grown to 80-90% confluence in 100
mm plates, while being passaged every 2–3 d. For the XTT assay (Biological Industries), cells were then
collected, centrifuged, and resuspended in fresh Minimum Essential Medium, and seeded at 50,000
cells/well in 96-well, poly- L-lysine-coated Nunc black, clear flat-bottomed plates (Thermo Fisher
Scientific). The next day, the cells were treated with increasing doses of QR2 inhibitors or vehicle f or 3 h,
and the XTT assay was then carried out as per the manufacturer’s instructions.
as §2, §3

Structures are written as SMILES. Several values for one entry are separate records, joined by “and”; a condition that tells them apart may be missing. Equal values may be shown once.

As to `Cc1ccc(-c2cn3cccc(C)c3n2)cc1S(=O)(=O)N1CCC(C)CC1` [YB-800], the “cell viability, Cell-Titer-Glo (replicates)” value (shortened to “cell viability, Cell-Titer-Glo”) with THLE-2 cells (inhibitor 3.9e-7 M) was 96.3 and 111.4; in the data set with THLE-2 cells (inhibitor 7.8e-7 M), 111.0 and 92.8; with THLE-2 cells (inhibitor 1.5625e-6 M), 96.0; in the data set on THLE-2 cells (inhibitor 3.125e-6 M) it was 102.0 and 98.8; in the data set with THLE-2 cells (inhibitor 6.25e-6 M), 95.3 and 97.2; with THLE-2 cells (inhibitor 1.25e-5 M) it was 87.5 and 81.6. For the same compound, the “cell viability, Cell-Titer-Glo” value is 74.8 and 70.3 in the data set on THLE-2 cells (inhibitor 2.5e-5 M); 54.4 and 53.1 in the data set on THLE-2 cells (inhibitor 5e-5 M); 50.5 and 51.2 in the data set on THLE-2 cells (inhibitor 0.0001 M). In addition, in the data set with THLE-2 cells, the “LD50, cell viability (Cell-Titer-Glo)” value came out at 78.401 µM. Besides, the “cell viability, XTT (replicates)” value in the data set on HEK293 cells (3h, inhibitor 2e-8 M) is 110.8 and 103.7 and 108.0 and 102.4; in the data set on HEK293 cells (3h, inhibitor 2e-7 M), 102.8 and 101.2 and 105.3 and 105.6; with HEK293 cells (3h, inhibitor 2e-6 M), 102.2 and 105.1 and 102.6 and 106.5; in the data set on HEK293 cells (3h, inhibitor 2e-5 M), 89.7 and 90.4 and 98.2 and 92.7; in the data set with HEK293 cells (24h, inhibitor 2e-8 M) it was 107.0 and 100.8 and 108.4; in the data set on HEK293 cells (24h, inhibitor 2e-7 M), 107.9 and 100.0 and 108.0. In addition, the “cell viability, XTT (replicates)” value is 108.3 and 101.8 and 109.9 in the data set with HEK293 cells (24h, inhibitor 2e-6 M); 104.0 and 96.6 and 104.9 with HEK293 cells (24h, inhibitor 2e-5 M).
For `Cc1ccc(-c2cn3cccc(C)c3n2)cc1S(=O)(=O)N1CCNCC1` [YB-537], the “cell viability, Cell-Titer-Glo” value in the data set with THLE-2 cells (inhibitor 3.9e-7 M) is 89.3 and 104.9 and 105.3; in the data set on THLE-2 cells (inhibitor 7.8e-7 M), 93.6 and 99.6 and 103.9; with THLE-2 cells (inhibitor 1.5625e-6 M) it was 96.4 and 109.9 and 90.1; with THLE-2 cells (inhibitor 3.125e-6 M), 92.2 and 96.1 and 103.0; with THLE-2 cells (inhibitor 6.25e-6 M), 89.6 and 101.5 and 85.3; in the data set on THLE-2 cells (inhibitor 1.25e-5 M), 95.7 and 97.8 and 93.2. Also, the “cell viability, Cell-Titer-Glo” value in the data set on THLE-2 cells (inhibitor 2.5e-5 M) was 93.9 and 92.0 and 88.2; in the data set on THLE-2 cells (inhibitor 5e-5 M), 91.4 and 92.2; in the data set on THLE-2 cells (inhibitor 0.0001 M), 81.5 and 82.7 and 80.4. For the same compound, in the data set on THLE-2 cells, the “LD50, cell viability (Cell-Titer-Glo)” value is more than 100 µM. Further, the “cell viability, XTT (replicates)” value in the data set with HEK293 cells (3h, inhibitor 2e-8 M) is 94.7 and 105.7 and 95.0 and 97.1; in the data set on HEK293 cells (3h, inhibitor 2e-7 M), 97.9 and 102.5 and 95.0 and 99.0; in the data set on HEK293 cells (3h, inhibitor 2e-6 M) it was 99.1 and 104.8 and 106.5 and 98.8; in the data set with HEK293 cells (3h, inhibitor 2e-5 M) it was 94.7 and 101.0 and 104.9 and 96.7; with HEK293 cells (24h, inhibitor 2e-8 M), 105.3 and 102.1 and 104.1; with HEK293 cells (24h, inhibitor 2e-7 M) it was 107.4 and 101.8 and 105.2. The “cell viability, XTT (replicates)” value was 109.0 and 101.0 and 104.0 with HEK293 cells (24h, inhibitor 2e-6 M); 106.0 and 97.3 and 109.2 in the data set with HEK293 cells (24h, inhibitor 2e-5 M).
Regarding `Cc1ccc(-c2cn3cccc(C)c3n2)cc1S(=O)(=O)N1CCCC1` [YB-808], the “cell viability, Cell-Titer-Glo” value in the data set on THLE-2 cells (inhibitor 3.9e-7 M) was 96.4 and 99.1; with THLE-2 cells (inhibitor 7.8e-7 M), 91.2 and 88.9; with THLE-2 cells (inhibitor 1.5625e-6 M), 98.0 and 97.5; with THLE-2 cells (inhibitor 3.125e-6 M) it was 92.2 and 93.9; with THLE-2 cells (inhibitor 6.25e-6 M), 94.7 and 93.5; with THLE-2 cells (inhibitor 1.25e-5 M) it was 90.2 and 79.5. Further, the “cell viability, Cell-Titer-Glo” value was 79.2 and 86.7 in the data set on THLE-2 cells (inhibitor 2.5e-5 M); 66.4 and 67.9 in the data set with THLE-2 cells (inhibitor 5e-5 M); 22.2 and 20.2 with THLE-2 cells (inhibitor 0.0001 M). For the same compound, the “LD50, cell viability (Cell-Titer-Glo)” value in the data set on THLE-2 cells worked out at 59.704 µM. Besides, the “cell viability, XTT (replicates)” value was 99.9 and 101.4 and 100.9 and 104.5 with HEK293 cells (3h, inhibitor 2e-8 M); 95.8 and 94.0 and 100.4 and 100.6 in the data set with HEK293 cells (3h, inhibitor 2e-7 M); 96.9 and 89.9 and 98.4 and 94.4 in the data set on HEK293 cells (3h, inhibitor 2e-6 M); 97.3 and 87.1 and 95.7 and 85.1 in the data set on HEK293 cells (3h, inhibitor 2e-5 M); 106.1 and 99.4 and 100.6 in the data set on HEK293 cells (24h, inhibitor 2e-8 M); 106.1 and 98.5 and 96.2 with HEK293 cells (24h, inhibitor 2e-7 M). Further, the “cell viability, XTT (replicates)” value was 103.5 and 93.6 and 93.8 with HEK293 cells (24h, inhibitor 2e-6 M); 95.3 and 93.6 and 96.9 in the data set on HEK293 cells (24h, inhibitor 2e-5 M).
